The numbers were not newly measured in patent publication US20240082151A1, “ORALLY IMPLANTABLE DRUG DELIVERY DEVICE” (priority 2019, published 2024), which cites them from elsewhere.

The conditions of data set [1]: another study (ref 34).
The conditions of data set [2]: target TFV-DP in PBMCs 50 fmol per million cells; PB-PK simulation (ref 33).
The test system of data set [3] is HIV. To be noted: target for effective HIV prevention.

In the case of `CC(C)OC(=O)[C@H](C)N[P@](=O)(CO[C@H](C)Cn1cnc2c(N)ncnc21)Oc1ccccc1` [TAF, Tenofovir alafenamide], the “TAF release rate estimated to be protective” value in data set [1] is “ca. 0.3 mg d^−1”. In data set [2], the “linear subcutaneous TAF release rate estimated to lead to protective TFV-DP PBMC concentrations” value is 0.5 mg/day.

As to `C[C@H]1CO[C@@H]2Cn3cc(C(=O)NCc4ccc(F)cc4F)c(=O)c(O)c3C(=O)N12` [CAB, Cabotegravir], in data set [3], the “steady state plasma CAB concentration, four times the protein adjusted IC90 (PA-IC90)” value is 0.66 µg/mL.
